Measured values as given in patent publication EP4744680A1, “TARGETED CHEMICAL DRUG AND PREPARATION METHOD THEREFOR, PHARMACEUTICAL COMPOSITION, AND USE OF TARGETED CHEMICAL DRUG” (Bai Yao Zhi Da (Beijing) Nanobio Technology Co., Ltd., priority 2023, dated 2025).

Columns and labels:
N87 gastric cancer = experiment: In vivo antitumor efficacy in an N87 gastric cancer mouse model (drug of Example 1); parameters: species or system mouse (BALB/c nude); conditions: 0.06mg i.v. (tail vein) twice per week for 5 weeks
Method: (1)..Cell culture: Tumor cells were cultured in RPMI-1640 medium supplemented with heat-inactivated 10% fetal bovine serum, 100 U/mL penicillin, 100 µg/mL streptomycin, and 2 mM L-glutamine, in a humidified incubator at 37 °C with 5% CO2.Subculture was performed every 3-4 days after confluence; tumor cells in logarithmic growth phase were used for in vivo inoculation. (2).Tumor cell inoculation and grouping: Tumor cells (1 × 10^7) resuspended in PBS: Matrigel were inoculated subcutaneously into the right flank of each mouse.When tumors reached approximately 80-100 mm^3, animals were randomized into groups for dosing. […] (3).Dosing Regimen: Table 22
The dosing volume is 200 µL per 20 g mouse, with the administered dose calculated on a body-weight basis; the observation period is 60 days, adjustable according to the condition of the animals and tumor status.
• a. Tumor volume: Measured twice weekly using vernier calipers. The long and short diameters were recorded; tumor volume was calculated as: Volume = 0.5 × length × (width)^2. • b. Post-administration reactions in animals: At each tumor-measurement time point, body weight was recorded.Changes in body weight relative to dosing time were documented.Survival and general health (e.g., activity, feeding) were monitored throughout the dosing period. • c. Tumor excision, weighing, and photography: at the end of the study, mice were euthanized; tumors were excised, photographed and collected; specimens were fixed or snap-frozen as required. • a) Photograph each animal post-euthanasia with tumor in situ; • b) Dissect and weigh each subcutaneous tumor; • c) Arrange all tumors on a white board according to group codes and photograph; then bisect longitudinally, realign by group code, and photograph again. • d) Tumors were snap-frozen or formalin-fixed per requirements. • d.
• a. […] Inhibition Rate of Tumor Weight (IRTW, %) IRTW (%) = (Wcontrol group−Wtreatment group)/Wcontrol group × 100, [formula] where W is tumor weight.IRTW > 60% is considered effective.

A549 lung carcinoma = experiment: In-vivo efficacy study in the A549 mouse lung carcinoma model (drugs of Example 6 and Example 20); parameters: species or system mouse (BALB/cAnSlacNifdc-nu); conditions: for Tumor growth inhibition rate (TGI, %) at different days post-inoculation: 0.12mg/20g i.v. (tail vein) once weekly, 3 administrations
Text: • Species/strain: BALB/cAnSlacNifdc-nu • Sex: Male • Body weight: 17-21 g
1).Inoculation and grouping: For the A549 mouse lung carcinoma model, male BALB/cAnSlacNifdc-nu mice weighing 17.0-21.0 g were used. Under aseptic conditions, A549 tumor tissue was excised and cut into 2.0 mm × 2.0 mm × 2.0 mm tumor blocks, which were implanted subcutaneously into the left axillary dorsal region of nude mice. The day of implantation was designated as Day 0 (D0).When the tumor volume reached approximately 150.0 mm^3 (D7), animals were randomized by tumor volume into four groups: A (vehicle control), B, C, and D (drug), with 8 animals per group. On the day of randomization, all groups began intravenous (tail-vein) dosing. Groups A, B, C, and subgroup D1 were dosed once weekly for a total of 3 administrations; subgroup D2 was dosed twice weekly for a total of 6 administrations. 2).Dosing regimen: Table 34
(§1) Tumor size is measured twice per week using a vernier caliper. The long diameter (a) and short diameter (b) are recorded. Tumor volume is calculated as: V=0.5×a×b^2.
RTV = Vt /V0 , [formula] where V0 is the tumor volume at grouping/first dosing (D0) and Vt is the tumor volume at each measurement time point.

[1] = Body weight and general condition in the U251 study; type: in vivo, mouse (BALB/c nude); conditions: Group 3, around D10 post-dosing; 6mg/Kg i.v. twice weekly; possibly due to drug toxicity
Method: The relationship between body weight change and the dosing regimen is recorded.Survival and health status are also monitored, including activity levels and food intake during the dosing period. • c) Tumor and Organ Imaging: At the end of the dosing period, mice are euthanized, and their brain, heart, liver, spleen, lungs, and kidneys are excised.

U251-RFP human glioma = experiment: In-vivo efficacy study in the U251-RFP human glioma orthotopic mouse model (drug of Example 9); parameters: species or system mouse (BALB/c nude); conditions: 6mg/Kg i.v. (tail vein) twice weekly, 8 administrations
Text: 2.Dosing regimen: Table 41

[2] = Body weight in the N87 study of the Example 5 drug; type: in vivo, mouse (BALB/c nude); conditions: 0.12mg i.v. (tail vein) once every 5 days, 5 administrations
Method: Body weight is measured three times per week.Data are recorded and changes analyzed.

HepG2 liver cancer = experiment: In-vivo efficacy study in the HepG2 mouse liver cancer model (drug of Example 6); parameters: species or system mouse (BALB/cAnSlacNifdc-nu); conditions: for Tumor growth inhibition rate (TGI, %) at different days post-inoculation: 6 mg/kg (0.12 mg/mouse) i.v. (tail vein) once weekly
Text: • Species/strain: BALB/cAnSlacNifdc-nu • Sex: Male • Body weight: 16-18 g
1).Inoculation and grouping: For the HepG2 mouse liver cancer model, male BALB/cAnSlacNifdc-nu nude mice, weighing 16.0-18.0 g, were used.Under aseptic conditions, HepG2 tumor tissue was excised and cut into 2.0mm×2.0mm×2.0mm tumor blocks, which were uniformly implanted subcutaneously into the left axillary dorsal region of nude mice. The day of implantation was designated as Day 0 (D0).When the tumor volume reached approximately 250.0 mm^3 (D7), animals were randomized by tumor volume into three groups: A (control group), B, and C (treatment groups), with 8 animals per group.On the day of randomization, all animals began intravenous (tail-vein) dosing once weekly for a total of 3 administrations. 2.Dosing regimen: Table 37
as §1
RTV = Vt /V0 , [formula] where V0 is the tumor volume at grouping/first dosing (D0), and Vt is the tumor volume at each measurement time point.
6).Tumor weight: At the end of the study (D23), the remaining animals were euthanized by cervical dislocation. Tumors were excised, weighed, and photographed.

[3] = end of the study (D29), intravenous administration

With `COc1cccc2c1C(=O)c1c(O)c3c(c(O)c1C2=O)C[C@@](O)(C(=O)CO)C[C@@H]3O[C@H]1C[C@H](N)[C@@H](O)[C@H](C)O1` [Epirubicin drug substance (API), Epirubicin] the “Tumor Growth Inhibition Rate at Different Days Post-Inoculation (%)” value (N87 gastric cancer; Day 9) was 8.44%, the “Tumor Growth Inhibition Rate at Different Days Post-Inoculation (%)” value (N87 gastric cancer; Day 13) was 0.40% and the “Tumor Growth Inhibition Rate at Different Days Post-Inoculation (%)” value (N87 gastric cancer; Day 17) was 6.68%. For the same compound, the “Tumor Growth Inhibition Rate at Different Days Post-Inoculation (%)” value (N87 gastric cancer; Day 20) was 7.83%, the “Tumor Growth Inhibition Rate at Different Days Post-Inoculation (%)” value (N87 gastric cancer; Day 23) was 12.46% and the “Tumor Growth Inhibition Rate at Different Days Post-Inoculation (%)” value (N87 gastric cancer; Day 27) was 23.34%. For the same compound, the “Tumor Growth Inhibition Rate at Different Days Post-Inoculation (%)” value (N87 gastric cancer; Day 30) was 25.87%, the “Tumor Growth Inhibition Rate at Different Days Post-Inoculation (%)” value (N87 gastric cancer; Day 34) was 31.16% and the “Tumor Growth Inhibition Rate at Different Days Post-Inoculation (%)” value (N87 gastric cancer; Day 37) was 36.26%. The “Tumor growth inhibition rate (TGI, %) at different days post-inoculation” value (A549 lung carcinoma; Day 11) was 27.01%, the “Tumor growth inhibition rate (TGI, %) at different days post-inoculation” value (A549 lung carcinoma; Day 14) was 45.82% and the “Tumor growth inhibition rate (TGI, %) at different days post-inoculation” value (A549 lung carcinoma; Day 18) was 43.61%. For the same compound, the “Tumor growth inhibition rate (TGI, %) at different days post-inoculation” value (A549 lung carcinoma; Day 21) was 44.97%, the “Tumor growth inhibition rate (TGI, %) at different days post-inoculation” value (A549 lung carcinoma; Day 25) was 46.31% and the “Tumor growth inhibition rate (TGI, %) at different days post-inoculation” value (A549 lung carcinoma; Day 29) was 49.64%. For the same compound, the T/C (A549 lung carcinoma; [3]) was “greater than 40%”, the “tumor growth inhibition rate (calculated based on tumor volume)” value (A549 lung carcinoma; [3]) was “less than 60%” and the “body weight of the mice (and spontaneous activity)” value [1] was “started to decrease”. For the same compound, the “Tumor growth inhibition rate (TGI, %) at different days post-inoculation” value (U251-RFP human glioma; Day 6) was 35.8%, the “Tumor growth inhibition rate (TGI, %) at different days post-inoculation” value (U251-RFP human glioma; Day 10) was -3.9% and the “Tumor growth inhibition rate (TGI, %) at different days post-inoculation” value (U251-RFP human glioma; Day 13) was -7.1%. For the same compound, the “Tumor growth inhibition rate (TGI, %) at different days post-inoculation” value (U251-RFP human glioma; Day 17) was 19.4%, the “Body-weight difference (g) between Day 23 and Day 5” value [2] was -3.84 g and the “Tumor weight inhibition rate, IRTW (%)” value (HepG2 liver cancer; 23 days post-HepG2 inoculation, 6 mg/kg (0.12 mg/mouse) i.v. once weekly, 3 administrations) was 25.20%. For the same compound, the “Tumor growth inhibition rate (TGI, %) at different days post-inoculation” value (HepG2 liver cancer; Day 10, 3 administrations) was 16.33%, the “Tumor growth inhibition rate (TGI, %) at different days post-inoculation” value (HepG2 liver cancer; Day 14, 3 administrations) was 36.16% and the “Tumor growth inhibition rate (TGI, %) at different days post-inoculation” value (HepG2 liver cancer; Day 21, 3 administrations) was 24.72%. The “Tumor growth inhibition rate (TGI, %) at different days post-inoculation” value (HepG2 liver cancer; Day 23, 3 administrations) was 22.08% and the “tumor growth inhibition rate (calculated based on tumor weight and tumor volume)” value (HepG2 liver cancer; end of the study (D23), intravenous injection) was “less than 60%”.
